Results taken from patent US7834194B2, “Cycloalkyl lactam derivatives as inhibitors of 11-beta-hydroxysteroid dehydrogenase 1” (Eli Lilly and Company, priority 2004, dated 2010).

target: recombinant human 11β-HSD type 1 enzyme (Homo sapiens, UniProt P28845); assay: 11β-HSD type 1 enzyme assay (NADPH production by fluorescence); assay type: biochemical; conditions: three hour incubation at room temperature
Experimental: 11β-HSD Type 1 Enzyme Assay
Human 11β-HSD type 1 activity is measured by assaying NADPH production by fluorescence assay. Solid compounds are dissolved in DMSO to a concentration of 10 mM. Twenty microliters of each are then transferred to a column of a 96-well polypropylene Nunc plate where they are further diluted 50-fold followed by subsequent two-fold titration, ten times across the plate with additional DMSO using a Tecan Genesis 200 automated system. Plates are then transferred to a Tecan Freedom 200 system with an attached Tecan Temo 96-well head and an Ultra 384 plate reader. Reagents are supplied in 96-well polypropylene Nunc plates and are dispensed individually into black 96-well Molecular Devices High Efficiency assay plates (40 μL/well capacity) in the following fashion: 9 μL/well of substrate (2.22 mM NADP, 55.5 μM Cortisol, 10 mM Tris, 0.25% Prionex, 0.1% Triton X100), 3 μL/well of water to compound wells or 3 μL to control and standard wells, 6 μL/well recombinant human 11β-HSD type 1 enzyme, 2 μL/well of compound dilutions. For ultimate calculation of percent inhibition, a series of wells are added that represent assay minimum and maximum: one set containing substrate with 667 μM carbenoxolone (background), and another set containing substrate and enzyme without compound (maximum signal). Final DMSO concentration is 0.5% for all compounds, controls and standards. Plates are then placed on a shaker by the robotic arm of the Tecan for 15 seconds before being covered and stacked for a three hour incubation period at room temperature. Upon completion of this incubation, the Tecan robotic arm removes each plate individually from the stacker and places them in position for addition of 5 μL/well of a 250 μM carbenoxolone solution to stop the enzymatic reaction. Plates are then shaken once more for 15 seconds then placed into an Ultra 384 microplate reader (355EX/460EM) for detection of NADPH fluorescence.

recombinant human 11β-HSD type 1 enzyme, sequence (P28845 whole entry): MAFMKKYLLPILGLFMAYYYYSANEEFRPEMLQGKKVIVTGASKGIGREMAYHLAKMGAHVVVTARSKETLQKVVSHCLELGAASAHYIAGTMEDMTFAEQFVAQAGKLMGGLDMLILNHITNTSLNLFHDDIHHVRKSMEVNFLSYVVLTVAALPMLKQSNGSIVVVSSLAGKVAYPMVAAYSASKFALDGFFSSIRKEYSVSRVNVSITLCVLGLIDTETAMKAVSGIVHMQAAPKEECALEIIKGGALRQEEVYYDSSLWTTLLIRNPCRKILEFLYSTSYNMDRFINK

Compound	IC50
O=C1C(Cc2cc3cc(-c4ccnc(F)c4)ccc3s2)CCN1C1CCCCC1 (stereo not shown)	257 nM
COc1ccc2c(Cl)c(CC3CCN(C4CCCCC4)C3=O)sc2c1 (stereo not shown)	508 nM
O=C1C(Cc2sc3ccccc3c2Cl)CCCN1C1CCC(O)CC1 (stereo not shown)	276 nM
O=C(O)c1ccc(-c2ccc3sc(CC4CCN(C5CCCCC5)C4=O)cc3c2)cc1 (stereo not shown)	427 nM
O=C1C(Cc2cc3ccccc3o2)CCN1C1CCCCC1 (stereo not shown)	682 nM

Compounds with a lower IC50, results first:

IC50	Compound
190 nM	O=C1C(Cc2cc3ccccc3s2)CCN1C1CCCCC1 (stereo not shown)
162 nM	O=C1C(Cc2sc3cc4c(cc3c2Cl)OCO4)CCN1C1CCCCC1 (stereo not shown)
